# Measurements taken from patent publication US9630922B2, “3-spiro-7-hydroxamic acid tetralins as HDAC inhibitors” (Forma Therapeutics, Inc., priority 2015, dated 2017).
# Molecular target: T1, HDAC6 (Homo sapiens, UniProt Q9UBN7)
# T1 construct: Full length human recombinant HDAC6 protein was expressed in baculoviral system; made in house; host or cells: baculoviral system
# T1 sequence (Q9UBN7 1-1215): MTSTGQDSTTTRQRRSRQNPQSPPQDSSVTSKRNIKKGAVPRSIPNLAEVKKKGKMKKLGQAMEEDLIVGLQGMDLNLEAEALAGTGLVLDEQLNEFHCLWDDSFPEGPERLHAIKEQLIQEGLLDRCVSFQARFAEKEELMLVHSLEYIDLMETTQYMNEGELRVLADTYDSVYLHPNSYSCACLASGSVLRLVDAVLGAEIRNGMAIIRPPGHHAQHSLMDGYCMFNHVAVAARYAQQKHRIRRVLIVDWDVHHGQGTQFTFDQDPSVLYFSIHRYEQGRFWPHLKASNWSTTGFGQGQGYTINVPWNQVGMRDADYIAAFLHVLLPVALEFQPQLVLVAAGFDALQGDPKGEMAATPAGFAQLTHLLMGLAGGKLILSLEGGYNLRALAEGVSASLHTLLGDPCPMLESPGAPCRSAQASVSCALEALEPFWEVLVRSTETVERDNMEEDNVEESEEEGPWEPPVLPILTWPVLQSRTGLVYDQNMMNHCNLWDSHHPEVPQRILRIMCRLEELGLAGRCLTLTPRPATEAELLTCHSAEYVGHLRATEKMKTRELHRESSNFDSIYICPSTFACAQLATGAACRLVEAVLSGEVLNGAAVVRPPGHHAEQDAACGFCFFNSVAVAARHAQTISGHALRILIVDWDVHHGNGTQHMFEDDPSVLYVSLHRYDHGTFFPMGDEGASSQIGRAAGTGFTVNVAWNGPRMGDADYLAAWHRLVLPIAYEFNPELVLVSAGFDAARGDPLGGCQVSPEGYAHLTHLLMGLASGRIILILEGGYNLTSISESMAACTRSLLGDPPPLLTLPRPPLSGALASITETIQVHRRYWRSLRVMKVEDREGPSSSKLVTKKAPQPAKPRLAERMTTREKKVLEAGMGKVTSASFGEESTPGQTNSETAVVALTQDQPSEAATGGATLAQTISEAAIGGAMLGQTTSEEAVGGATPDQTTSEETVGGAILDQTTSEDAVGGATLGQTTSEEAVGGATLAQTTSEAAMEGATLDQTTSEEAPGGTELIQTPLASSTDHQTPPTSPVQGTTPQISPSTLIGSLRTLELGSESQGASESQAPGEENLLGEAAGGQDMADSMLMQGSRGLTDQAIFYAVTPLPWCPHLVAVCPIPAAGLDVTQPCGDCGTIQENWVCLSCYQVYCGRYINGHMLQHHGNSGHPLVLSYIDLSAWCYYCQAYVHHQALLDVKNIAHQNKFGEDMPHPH
# Assay: In vitro Histone Deacetylase Assay (enzymatic HDAC6 electrophoretic mobility shift assay)
# Type: biochemical
# Details: full length human recombinant HDAC6, 1 nM enzyme, 2 μM peptide substrate RHKK(Ac)-NH2, 25° C.; read-out: HDAC6 activity range
# Procedure: The enzymatic HDAC6 assay was performed using electrophoretic mobility shift assay. Full length human recombinant HDAC6 protein was expressed in baculoviral system and purified by affinity chromatography. The enzymatic reactions were assembled in 384 well plates in a total volume of 25 μL in a reaction buffer composing: 100 mM HEPES, pH7.5, 25 mM KCl, 0.1% bovine serum albumin, 0.01% Triton X-100, 1% DMSO (from compounds) 2 μM of the fluorescently labeled peptide substrate and enzyme. The enzyme was added at a final concentration of 1 nM. The peptide substrate RHKK(Ac)—NH2 was used. The compounds were tested at 12 concentrations spaced by 3× dilution intervals. Negative control samples (0%-inhibition in the absence of inhibitor) and positive control samples (100%-inhibition) were assembled in replicates of four in each assay plate. The reactions were incubated at 25° C. and quenched by the addition of 45 μL of termination buffer (100 mM HEPES, pH 7.5, 0.01% Triton X-100, 0.05% SDS).
# The terminated assay plates were analyzed on LabChip® 3000 microfluidic electrophoresis instrument (Perkin Elmer/Caliper Life Sciences). The fluorescence intensity of the electrophoretically separated de-acetylated product and substrate peptide was measured. Activity in each sample was determined as the product to sum ratio (PSR): P/(S+P), where P is the peak height of the product peptide and S is the peak height of the substrate peptide. Percent inhibition (Pinh) is determined using the following equation:
# Pinh=(PSR0%−PSRinh)/(PSR0%−PSR100%)*100, where PSRinh is the product sum ratio in the presence of inhibitor, PSR0% is the average product sum ration in the absence of inhibitor and PSR100% is the average product sum ratio in 100%-inhibition control samples. The IC50 values of inhibitors were determined by fitting the %-inhibition curves with 4 parameter dose-response model using XLfit 4 software.
# As set forth in Table-31, below, IC50 values are defined as follows: IC50≦0.1 μM (+++); IC50>0.1 μM and ≦0.5 μM (++); IC50>0.5 μM (+).
row,SMILES,IC50 [nM]
1,"CCN1CCCC2(CCc3cc(C(=O)NO)ccc3C2)C1=O (single isomer, unassigned) [Compound I-184]",≤ 100
2,"C=C(C)CN1CC[C@]2(CCc3cc(C(=O)NO)ccc3C2)C1=O [Compound I-47, (R)-N-hydroxy-1′-(2-methylallyl)-2′-oxo-3,4-dihydro-1H-spiro[naphthalene-2,3′-pyrrolidine]-6-carboxamide]",≤ 100
3,"COc1ccc(CN2CC[C@@]3(CCc4cc(C(=O)NO)ccc4C3)C2=O)cc1 [Compound I-83, (S)-N-hydroxy-1′-(4-methoxybenzyl)-2′-oxo-3,4-dihydro-1H-spiro[naphthalene-2,3′-pyrrolidine]-6-carboxamide]",≤ 100
4,"O=C(NO)c1ccc2c(c1)CCC1(CC(=O)N(C3CC3)C1)C2 (single isomer, unassigned) [Compound I-214]",≤ 100
5,"COCCn1c(CN2CC[C@@]3(CCc4cc(C(=O)NO)ccc4C3)C2=O)nc2ccccc21 [Compound I-23, (S)-N-hydroxy-1′-((1-(2-methoxyethyl)-1H-benzo[d]imidazol-2-yl)methyl)-2′-oxo-3,4-dihydro-1H-spiro[naphthalene-2,3′-pyrrolidine]-6-carboxamide]",≤ 100
6,"CC#CCN1CC[C@]2(CCc3cc(C(=O)NO)ccc3C2)C1=O [Compound I-35, (R)-1′-(but-2-yn-1-yl)-N-hydroxy-2′-oxo-3,4-dihydro-1H-spiro[naphthalene-2,3′-pyrrolidine]-6-carboxamide]",≤ 100
7,"COc1ccc(CCN2CCC3(CCc4cc(C(=O)NO)ccc4C3)C2=O)cc1 (stereo not shown) [Compound I-4, N-hydroxy-1′-(4-methoxyphenethyl)-2′-oxo-3,4-dihydro-1H-spiro[naphthalene-2,3′-pyrrolidine]-6-carboxamide]",≤ 100
8,"O=C(NO)c1ccc2c(c1)CC[C@@]1(CCN(CC(F)(F)F)C1=O)C2 [Compound I-166, (S)-N-hydroxy-2′-oxo-1′-(2,2,2-trifluoroethyl)-3,4-dihydro-1H-spiro[naphthalene-2,3′-pyrrolidine]-6-carboxamide]",100 to 500
9,"COc1ccc(CCN2CCC3(CCc4cc(C(=O)NO)ccc4C3)C2)cc1 (stereo not shown) [Compound I-2, N-hydroxy-1′-(4-methoxyphenethyl)-3,4-dihydro-1H-spiro[naphthalene-2,3′-pyrrolidine]-6-carboxamide]",100 to 500
10,"O=C(NO)c1ccc2c(c1)CCC1(CCN(Cc3ccncc3)C1=O)S2(=O)=O (stereo not shown) [Compound I-242, N-hydroxy-2-oxo-1-(pyridin-4-ylmethyl)spiro[pyrrolidine-3,2′-thiochromane]-6′-carboxamide 1′,1′-dioxide]",> 500
11,"CN1CCC2(CCc3cc(C(=O)NO)ccc3S2(=O)=O)C1=O (stereo not shown) [Compound I-244, N-hydroxy-1-methyl-2-oxospiro[pyrrolidine-3,2′-thiochromane]-6′-carboxamide 1′,1′-dioxide]",> 500
12,"COc1ccc(S(=O)(=O)N2CCC3(CCc4cc(C(=O)NO)ccc4O3)CC2)cc1 [II-5, N-hydroxy-1′-((4-methoxyphenyl)sulfonyl)spiro[chromane-2,4′-piperidine]-6-carboxamide]",> 500
13,"O=C(NO)c1ccc2c(c1)CCC1(CCCN(CC3COC3)C1=O)C2 (single isomer, unassigned) [Compound I-196]",≤ 100
14,"O=C(NO)c1ccc2c(c1)CC[C@@]1(CCN(Cc3ccccc3OC(F)(F)F)C1=O)C2 [Compound I-69, (S)-N-hydroxy-2′-oxo-1′-(2-(trifluoromethoxy)benzyl)-3,4-dihydro-1H-spiro[naphthalene-2,3′-pyrrolidine]-6-carboxamide]",100 to 500

# Second part, the compound after the results:
row,IC50 [nM],SMILES
1,≤ 100,"CN(C)c1ccc(N2CC[C@]3(CCc4cc(C(=O)NO)ccc4C3)C2=O)cn1 [Compound I-151, (2R)-1′-[6-(dimethylamino)pyridin-3-yl]-N-hydroxy-2′-oxo-3,4-dihydro-1H-spiro[naphthalene-2,3′-pyrrolidine]-6-carboxamide]"
2,≤ 100,"O=C(NO)c1ccc2c(c1)CC[C@@]1(CCN(Cc3cccc(F)c3)C1=O)C2 [Compound I-79, (S)-1′-(3-fluorobenzyl)-N-hydroxy-2′-oxo-3,4-dihydro-1H-spiro[naphthalene-2,3′-pyrrolidine]-6-carboxamide]"
3,≤ 100,"Cn1cc(N2CC[C@]3(CCc4cc(C(=O)NO)ccc4C3)C2=O)cn1 [Compound I-168, (R)-N-hydroxy-1′-(1-methyl-1H-pyrazol-4-yl)-2′-oxo-3,4-dihydro-1H-spiro[naphthalene-2,3′-pyrrolidine]-6-carboxamide]"
4,≤ 100,"O=C(NO)c1ccc2c(c1)CC[C@]1(CCN(c3ccc(F)cc3)C1=O)C2 [Compound I-120, (R)-1′-(4-fluorophenyl)-N-hydroxy-2′-oxo-3,4-dihydro-1H-spiro[naphthalene-2,3′-pyrrolidine]-6-carboxamide]"
5,≤ 100,"O=C(NO)c1ccc2c(c1)CC[C@@]1(CCN(Cc3cccc(Cl)c3)C1=O)C2 [Compound I-81, (S)-1′-[(3-chlorophenyl)methyl]-N-hydroxy-2′-oxo-3,4-dihydro-1H-spiro[naphthalene-2,3′-pyrrolidine]-6-carboxamide]"
6,≤ 100,"O=C(NO)c1ccc2c(c1)CC[C@@]1(CCN(c3ccccc3)C1=O)C2 [Compound I-29, (S)-N-hydroxy-2′-oxo-1′-phenyl-3,4-dihydro-1H-spiro[naphthalene-2,3′-pyrrolidine]-6-carboxamide]"
7,≤ 100,"Cc1nn(C)cc1N1CC[C@]2(CCc3cc(C(=O)NO)ccc3C2)C1=O [Compound I-98, (R)-1′-(1,3-dimethyl-1H-pyrazol-4-yl)-N-hydroxy-2′-oxo-3,4-dihydro-1H-spiro[naphthalene-2,3′-pyrrolidine]-6-carboxamide]"
8,≤ 100,"O=C(NO)c1ccc2c(c1)CC[C@@]1(CCN(c3cncc(Cl)c3)C1=O)C2 [Compound I-138, (S)-1′-(5-chloropyridin-3-yl)-N-hydroxy-2′-oxo-3,4-dihydro-1H-spiro[naphthalene-2,3′-pyrrolidine]-6-carboxamide]"
9,≤ 100,"O=C(NO)c1ccc2c(c1)CCC1(CCN(Cc3ccc(Cl)c(Cl)c3)C1=O)C2 (stereo not shown) [Compound I-6, 1′-(3,4-dichlorobenzyl)-N-hydroxy-2′-oxo-3,4-dihydro-1H-spiro[naphthalene-2,3′-pyrrolidine]-6-carboxamide]"
10,≤ 100,"Cc1ccc(N2CC[C@]3(CCc4cc(C(=O)NO)ccc4C3)C2=O)cn1 [Compound I-133, (R)-N-hydroxy-1′-(6-methylpyridin-3-yl)-2′-oxo-3,4-dihydro-1H-spiro[naphthalene-2,3′-pyrrolidine]-6-carboxamide]"
11,≤ 100,"O=C(NO)c1ccc2c(c1)CC[C@]1(CCN(c3cccc(F)c3F)C1=O)C2 [Compound I-123, (R)-1′-(2,3-difluorophenyl)-N-hydroxy-2′-oxo-3,4-dihydro-1H-spiro[naphthalene-2,3′-pyrrolidine]-6-carboxamide]"
